Measurements reported in US20250109140A1, “5-[5-(PIPERIDIN-4-YL)THIENO[3,2-C]PYRAZOL-2-YL]INDAZOLE DERIVATIVES AND RELATED COMPOUNDS AS MODULATORS FOR SPLICING NUCLEIC ACIDS AND FOR THE TREATMENT OF PROLIFERATIVE DISEASES” (REMIX THERAPUTICS INC., priority 2022, published 2025).
Where two headings read alike, the source gives them in different places.

Legend:
HiBiT-tagged MYB protein = assay: HiBiT protein abundance assay, MYB (K562 HiBiT knock-in cells); format: cell-based, human; settings: 24 hours treatment
Outline: (§1)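 Luminescence from the Nano-Glo HiBiT lytic reagent measured tagged protein remaining in knock-in K562 cells after 24 h compound exposure (top dose 10 µM final, 3-fold, 10 points). Responses normalized between parental K562 and DMSO-treated lines were fit by four-parameter logistic to interpolate the 50% concentration.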

Target C = assay: HiBiT protein abundance assay, Target C (K562 HiBiT knock-in cells); format: cell-based, human; settings: 24 hours treatment
Outline: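 The readout was Nano-Glo HiBiT lytic luminescence after 24 h compound exposure at 37 °C, in 10000 K562 knock-in cells/well. Compounds ran as 10-point, 3-fold series, top final […], ≤0.25% DMSO. Responses were scaled between parental K562 and DMSO-treated controls, and IC50 was interpolated at 50% from four-parameter logistic curves.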

HTT mRNA = assay: Splicing RT-qPCR assay, HTT canonical (CJ) and alternative (AJ) junction mRNA; format: cell-based; settings: Homo sapiens; for EC50: AC50 = 50% response in AJ mRNA increase
Outline: (§2)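 Readout is RT-qPCR of CJ and AJ mRNA in lysates from A673 or K562 cells given an 11-point titration (top dose 10 uM final, DMSO at most 0.25%) for 24 hours. Data were normalized to GAPDH, GUSB or PPIA, then to DMSO.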

[1] = system: K562 (human chronic myelogenous leukemia) cells; assay: Cell viability, Cell Titer Glo 2.0 assay, K562 cells; format: cell-based; settings: 72 hours
Outline: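 Luminescent Cell Titer Glo 2.0 readout after 72 h exposure (37° C, 5% CO2), medium-only wells as blank. Cells plated 500/well in IMDM with 10% FBS; test compounds diluted from DMSO series 1:100 into medium, 0.1% DMSO final.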

SMN2 mRNA = assay: Splicing RT-qPCR gene panel, SMN2 canonical junction (CJ) mRNA; format: cell-based; settings: Homo sapiens; Table 8; larger gene panel, decrease in CJ mRNA levels
Outline: as §2

HiBiT-tagged HTT protein = assay: HiBiT protein abundance assay, HTT (K562 HiBiT knock-in cells); format: cell-based, human; settings: 24 hours treatment
Outline: as §1

MYB mRNA = assay: Splicing RT-qPCR assay, MYB canonical (CJ) and alternative (AJ) junction mRNA; format: cell-based; settings: Homo sapiens; for EC50: AC50 = 50% response in AJ mRNA increase
Outline: as §2

Target C mRNA = assay: Splicing RT-qPCR gene panel, Target C canonical junction (CJ) mRNA; format: cell-based; settings: Homo sapiens; Table 8; larger gene panel, decrease in CJ mRNA levels
Outline: as §2

[2] = Table 7, RT-qPCR, A673 or K562 cells, 24 hours treatment
[3] = Table 7, IC50 = 50% response in CJ mRNA decrease, RT-qPCR, A673 or K562 cells, 24 hours treatment, read-out: HTT CJ
[4] = Table 8, larger gene panel, decrease in CJ mRNA levels, read-out: HTT CJ IC50
[5] = Table 7, IC50 = 50% response in CJ mRNA decrease, RT-qPCR, A673 or K562 cells, 24 hours treatment, read-out: MYB CJ
[6] = Table 8, larger gene panel, decrease in CJ mRNA levels, read-out: MYB CJ IC50

Compound | IC50 (HiBiT-tagged MYB protein) | IC50 (Target C) | EC50 (HTT mRNA; [2]) | IC50 (HTT mRNA; [3]) | IC50 (HTT mRNA; [4]) | IC50 [1] | IC50 (SMN2 mRNA) | IC50 (HiBiT-tagged HTT protein) | EC50 (MYB mRNA; [2]) | IC50 (MYB mRNA; [5]) | IC50 (MYB mRNA; [6]) | IC50 (Target C mRNA)
COc1c(-c2cc3cn(C4CCNCC4)nc3s2)cc(F)c2nn(C)cc12 [Compound 224] | > 10000 nM | > 10000 nM | > 10000 nM | > 10000 nM | > 10000 nM | > 10000 nM | > 10000 nM | > 10000 nM | > 10000 nM | > 10000 nM | > 10000 nM | > 10000 nM
Cc1cc(-c2cc3cn(C4CCNCC4)nc3s2)cc2cn(C)nc12 [Compound 225] | 100 to 1000 nM | < 100 nM | < 100 nM | < 100 nM | < 100 nM | 100 to 1000 nM | < 100 nM | < 100 nM | 100 to 1000 nM | 100 to 1000 nM | 100 to 1000 nM | 100 to 1000 nM
Cn1cc2cc(-c3nc4cn(C5CCNCC5)nc4s3)c(O)c(F)c2n1 [Compound 1107] | 1000 to 10000 nM | 100 to 1000 nM | 100 to 1000 nM | 100 to 1000 nM | 100 to 1000 nM | 1000 to 10000 nM | < 100 nM | 100 to 1000 nM | 100 to 1000 nM | 100 to 1000 nM | 100 to 1000 nM | 100 to 1000 nM
Cc1cc(-n2cc3nc(C4CCNCC4)sc3n2)cc2cn(C)nc12 [Compound 1106] | 1000 to 10000 nM | 1000 to 10000 nM | 1000 to 10000 nM | 1000 to 10000 nM | 1000 to 10000 nM | > 10000 nM | 1000 to 10000 nM | 1000 to 10000 nM | 1000 to 10000 nM | > 10000 nM | > 10000 nM | > 10000 nM
Cc1cn2cc(-n3cc4sc(C5CCNCC5)cc4n3)cc(Cl)c2n1 [Compound 172] | 1000 to 10000 nM | 100 to 1000 nM | 100 to 1000 nM | 100 to 1000 nM | 100 to 1000 nM | 1000 to 10000 nM | 100 to 1000 nM | 100 to 1000 nM | 100 to 1000 nM | 1000 to 10000 nM | 100 to 1000 nM | 1000 to 10000 nM
Cn1cc2cc(-c3cc4cn(C5CCNCC5)nc4s3)c(F)cc2n1 [Compound 210] | 100 to 1000 nM | 100 to 1000 nM | < 100 nM | < 100 nM | < 100 nM | 100 to 1000 nM | < 100 nM | < 100 nM | 100 to 1000 nM | 100 to 1000 nM | 100 to 1000 nM | 100 to 1000 nM
Cc1cn2cc(-n3cc4cc(C5CCNCC5)sc4n3)cc(Cl)c2n1 [Compound 165] | 100 to 1000 nM | 100 to 1000 nM | < 100 nM | < 100 nM | < 100 nM | 100 to 1000 nM | < 100 nM | < 100 nM | 1000 to 10000 nM | 100 to 1000 nM | 1000 to 10000 nM | 100 to 1000 nM
c1n[nH]cc1-n1cc2sc(C3CCNCC3)cc2n1 [Compound 176] | > 10000 nM | > 10000 nM | > 10000 nM | > 10000 nM | > 10000 nM | > 10000 nM | > 10000 nM | > 10000 nM | > 10000 nM | > 10000 nM | > 10000 nM | > 10000 nM
Cn1cc2cc(-c3cc4cn([C@@H]5CCNC[C@@H]5F)nc4s3)cc(F)c2n1 [Compound 183] | 100 to 1000 nM | < 100 nM | 1000 to 10000 nM | 100 to 1000 nM | 1000 to 10000 nM | 100 to 1000 nM | 100 to 1000 nM | < 100 nM | 1000 to 10000 nM | 1000 to 10000 nM | 1000 to 10000 nM | 1000 to 10000 nM
Cn1cc2cc(-c3cc4cn(C5CNC5)nc4s3)cc(F)c2n1 [Compound 184] | 1000 to 10000 nM | > 10000 nM | 1000 to 10000 nM | 1000 to 10000 nM | 1000 to 10000 nM | 1000 to 10000 nM | 100 to 1000 nM | 1000 to 10000 nM | 1000 to 10000 nM | 1000 to 10000 nM | 1000 to 10000 nM | > 10000 nM
CCN1CCC(n2cc3cc(-c4cc(F)c5nn(C)cc5c4)sc3n2)CC1 [Compound 149, 5-[2-(1-ethylpiperidin-4-yl)thieno[2,3-c]pyrazol-5-yl]-7-fluoro-2-methylindazole] | 100 to 1000 nM | 100 to 1000 nM | < 100 nM | < 100 nM | < 100 nM | 100 to 1000 nM | < 100 nM | < 100 nM | 100 to 1000 nM | 100 to 1000 nM | 100 to 1000 nM | 100 to 1000 nM
Cc1cn2nc(-c3cc4cn(C5CCNCC5)nc4s3)cc2c(C)n1 [Compound 222] | 1000 to 10000 nM | 1000 to 10000 nM | 1000 to 10000 nM | 1000 to 10000 nM | 1000 to 10000 nM | 1000 to 10000 nM | < 100 nM | 100 to 1000 nM | 1000 to 10000 nM | 1000 to 10000 nM | 1000 to 10000 nM | 1000 to 10000 nM
